Test results: US20220233469A1, “METHODS, COMPOSITIONS AND DEVICES FOR TREATING NEUROINFLAMMATORY CONDITIONS” (ALYRA BIOTECH PTY LTD, priority 2019, published 2022)
“Also recorded” adds a separate entry of the source.

Experiments:
[1] = system: HEK293/Null1; experiment: TLR-/NLR- control cell line HEK293/Null1 stimulated with TNFa; assay type: cell-based, human; conditions: stimulated with TNFa at 10 ng/mL
Procedure: (§1) Toll-Like Receptor (TLR), NOD-Like Receptor (NLR) and C-Type Lectin Receptor (CLR) stimulation were tested by assessing NF-κB activation in HEK293 cells expressing a given TLR, NLR or CLR. The activity of the test articles was tested at one concentration and compared to control ligands. These steps were performed in triplicate. In a 96-well plate (200 μL total volume) containing the appropriate cells (50,000-75,000 cells/well), 20 μL of the test article or the positive control ligand was added to the wells. For the antagonist assay, the test article was incubated with the cells, at 37° C. with 5% CO2, for 30 minutes prior to the addition of the positive control ligand to the wells. The media added to the wells was designed for the detection of NF-κB induced SEAP expression. After a 16-24 hr incubation the optical density (OD) was read at 650 nm on a Molecular Devices SpectraMax 340PC absorbance detector.

[2] = system: HEK293/Null2; experiment: TLR-/NLR- control cell line HEK293/Null2 stimulated with TNFa; assay type: cell-based, human; conditions: stimulated with TNFa at 10 ng/mL
Procedure: as §1

[3] = system: HEK293/Null; experiment: RIG-I-/MDA-5- control cell line HEK293/Null stimulated with hIFNα; assay type: cell-based, human; conditions: stimulated with recombinant hIFNα at 100 IU/mL
Procedure: RIG-I and MDA-5 stimulation were tested by assessing IRF3 activation in HEK293 cells expressing human RIG-I or MDA-5 genes. The activity of the test articles was tested on human RIG-I and MDA-5 expressing cells as a potential agonist or antagonist. The test articles were evaluated at one concentration and compared to control ligands. This step was performed in triplicate. The results are provided as Relative Luminescence Units (RLUs).
RIG-I^−/MDA-5^− Cell Lines: HEK293/Null: Control for human RIG-I and MDA-5 Poly(I:C)HMW/LyoVec at 1 μg/mL. Antagonist: 500 ng/mL 5′ppp-dsRNA/LyoVec at 1 μg/mL. Antagonist: 500 ng/mL hIFNα at 1000 IU/mL. Antagonist: 100 IU/mL.
In a 96-well plate (200 μL total volume) containing the appropriate cells (25,000-50,000 cells/well), 20 μL of the test article or of the positive control ligand was added to the wells. For the antagonist assay, the test article was incubated with the cells, at 37° C. with 5% CO2, for 30 minutes prior to the addition of the positive control ligand to the wells. After 20 hour incubation, activation of the IRF pathway was monitored using a luciferase detection assay. Luciferase activity was assayed in triplicate from the supernatant of the induced cells, and the relative luminescence units (RLUs) are detected by a Promega GloMax Luminometer.

[4] = system: dorsal horn astrocytes; experiment: Activation of dorsal horn astrocytes (GFAP immunofluorescence) after intrauterine LPS in mice; assay type: in vivo, mouse; conditions: for LPS-induced activation of spinal astrocytes (GFAP staining, dorsal horn): intrauterine, given with LPS (100 ug/kg) once per estrus cycle over three cycles, Amitriptyline 28 ug/kg, TAK-242 36 ug/kg; for integrated density of GFAP staining (activated astrocytes within the dorsal horn): level of T12, intrauterine LPS with Amitriptyline or TAK-242 vs LPS, p=0.0002
Description: (§2) We first recognised that neuroinflammatory conditions of the nervous system may be, at least in part, due to activation of the innate immune system within the uterus resulting in activation of glial cells in the dorsal horn of the spinal cord. To model this in mice, a study was undertaken administering LPS (lipopolysaccharide), a potent immune activator, to the uterus of mice once per estrus cycle over three cycles.
(§3) Studies were also undertaken to investigate whether a small dose of amitriptyline, an inhibitor of the pattern recognition receptors TLR, NOD, CLR, RIG-1 and MDA-5, administered with LPS within the uterus could prevent LPS-induced activation of spinal glial cells. To confirm that the amitriptyline was acting, at least in part, by blocking TLRs, an investigation was also conducted on mice given a small dose of pure TLR4 blocker-TAK-242—with LPS.
(§4) The Nonsurgical Embryo Transfer Device (Paratech, USA) was used to allow insertion of fluid into the uterus with brief, mild discomfort to the mouse, and no need for anaesthesia. Following three estrus cycles, glial activation in the dorsal horn of the spinal cord was measured using immunofluorescence. Activation of dorsal horn astrocytes was assessed using GFAP. Activation of dorsal horn microglia was assessed using Iba1. We compared the activation of spinal glia in mice with intrauterine administration of saline only, saline and LPS (100 ug/kg), saline LPS (100 ug/kg) and Amitriptyline (28 ug/kg), and saline LPS (100 ug/kg) and TAK-242 (36 ug/kg).
(§5) The spinal cord was assessed using immunohistochemistry techniques across levels T10, T11, T12, T13, L1, L2, L3, L4, L5, L6, S1 and S2 where T represents the thoracic segment of the spinal cord, L represents the lumbar segment of the spinal cord and S represents the sacral segment of the spinal cord. The regions of interest in the dorsal horn include Laminae I, II, III and IV. Changes in spinal glial reactivity are causally linked to all known models of neuroinflammatory medical conditions.

[5] = system: dorsal horn microglia; experiment: Activation of dorsal horn microglia (Iba1 immunofluorescence) after intrauterine LPS in mice; assay type: in vivo, mouse; conditions: for LPS-induced activation of spinal microglia (Iba1 staining, dorsal horn): intrauterine, given with LPS (100 ug/kg) once per estrus cycle over three cycles, Amitriptyline 28 ug/kg, TAK-242 36 ug/kg
Description: as §2, §3, §4, §5

[6] = system: spinal glial cells; experiment: Spinal glial activation after intrauterine LPS in mice; assay type: in vivo, mouse; conditions: for LPS-induced spinal glial activation: intrauterine co-administration with LPS (100 ug/kg), Amitriptyline 28 ug/kg, TAK-242 36 ug/kg
Description: as §2, §3, §4, §5

[7] = Facial Grimace Score after intrauterine LPS in mice; assay type: in vivo, mouse; conditions: for Facial Grimace Score: mice, 24 hours following the final LPS stimulation
[8] = used orally in clinical practice; cited from earlier work
[9] = molecular target: T1, Human TLR7 (Homo sapiens, UniProt Q9NYK1); experiment: Human TLR antagonist screening: NF-κB activation in HEK293 cells, TLR7; assay type: cell-based; conditions: antagonist mode; test article 1 μM, +CL307 10 ng/ml; No Sample 13, Control- 1
T1 construct: expressed in transfected cells; host or cells: HEK293
T1 sequence (Q9NYK1 27-1049): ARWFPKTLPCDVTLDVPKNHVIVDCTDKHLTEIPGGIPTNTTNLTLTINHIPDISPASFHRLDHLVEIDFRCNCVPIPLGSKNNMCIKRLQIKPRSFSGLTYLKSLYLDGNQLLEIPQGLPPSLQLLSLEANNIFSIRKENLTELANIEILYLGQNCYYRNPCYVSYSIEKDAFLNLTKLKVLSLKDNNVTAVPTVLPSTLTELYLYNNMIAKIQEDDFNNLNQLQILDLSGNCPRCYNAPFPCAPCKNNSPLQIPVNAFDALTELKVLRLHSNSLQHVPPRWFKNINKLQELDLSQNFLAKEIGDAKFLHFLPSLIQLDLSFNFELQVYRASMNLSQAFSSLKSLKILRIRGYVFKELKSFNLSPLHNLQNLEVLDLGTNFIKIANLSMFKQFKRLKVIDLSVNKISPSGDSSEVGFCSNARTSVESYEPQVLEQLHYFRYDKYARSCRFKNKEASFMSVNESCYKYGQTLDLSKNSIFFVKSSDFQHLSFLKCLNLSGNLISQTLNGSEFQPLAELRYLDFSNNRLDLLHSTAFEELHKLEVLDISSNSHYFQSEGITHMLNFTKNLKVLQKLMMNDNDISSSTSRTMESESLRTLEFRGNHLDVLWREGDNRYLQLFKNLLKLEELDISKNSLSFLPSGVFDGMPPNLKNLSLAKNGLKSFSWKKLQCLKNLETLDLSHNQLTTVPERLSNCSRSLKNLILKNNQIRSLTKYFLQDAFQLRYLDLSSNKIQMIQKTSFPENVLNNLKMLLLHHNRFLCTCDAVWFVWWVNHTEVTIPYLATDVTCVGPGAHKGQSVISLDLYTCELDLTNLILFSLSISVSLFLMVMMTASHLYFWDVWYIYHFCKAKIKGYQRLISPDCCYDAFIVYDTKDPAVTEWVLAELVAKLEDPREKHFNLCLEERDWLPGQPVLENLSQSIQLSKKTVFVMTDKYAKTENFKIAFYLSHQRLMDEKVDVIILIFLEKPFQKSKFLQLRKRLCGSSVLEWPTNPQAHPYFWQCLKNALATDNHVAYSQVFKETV
Procedure: as §1, with “triplicate. […] CL307 at 1 μg/mL Antagonist: 10 ng/mL.” for “triplicate.”, “expression.” for “expression. After a 16-24 hr incubation the optical density (OD) was read at 650 nm on a Molecular Devices SpectraMax 340PC absorbance detector.”

[10] = intrauterine LPS with Amitriptyline or TAK242
[11] = intrauterine LPS (100 ug/kg) compared with saline

Compound	effect on control cell line HEK293/Null1 [1]	effect on control cell line HEK293/Null2 [2]	LPS-induced activation of spinal astrocytes (GFAP staining, dorsal horn) [4]	integrated density of GFAP staining (activated astrocytes within the dorsal horn) [4]	LPS-induced activation of spinal microglia (Iba1 staining, dorsal horn) [5]	LPS-induced spinal glial activation [6]	Facial Grimace Score [7, 10]	other results
CN(C)CCC=C1c2ccccc2CCc2ccccc21 [Amitriptyline]	slight inhibitory effect	slight inhibitory effect	blocks the impact of intrauterine LPS at multiple levels of the spinal cord and appears to reduce astrocytic reactivity to below basal levels	significantly reduce LPS effect	blocked the impact of intrauterine LPS at multiple levels of the spinal cord and reduced microglial reactivity to basal levels; also recorded: appears to reduce microglial reactivity to basal levels	showed additional activity reducing spinal glial activation above TAK-242 alone	reduced these scores	effect on control cell line HEK293/Null [3]: inhibitory effect; LPS-induced activation of spinal astrocytes (GFAP staining, dorsal horn) ([4]; listed as amitriptyline): prevented LPS-induced activation of spinal astrocytes and microglia; also recorded: reduced spinal activation of astrocytes below baseline levels; also recorded: blocked the impact of intrauterine LPS at multiple levels of the spinal cord and reduced astrocytic reactivity to below basal levels; LPS-induced activation of spinal microglia (Iba1 staining, dorsal horn) ([5]; listed as amitriptyline): prevented LPS-induced activation of spinal astrocytes and microglia; LPS-induced spinal glial activation ([6]; listed as amitriptyline): effect was prevented; proportion of mice displaying severe grimace ([7]; intrauterine LPS with amitriptyline vs LPS only, categorical assessment, p=0.043): significantly reduced severe grimace behaviour; clinical use [8]: has been used successfully to treat PMS and depression
CNCCC=C1c2ccccc2CCc2ccccc21 [Nortriptyline]	slight inhibitory effect	slight inhibitory effect	–	–	–	–	–	Fold Induction [9]: slight potentiating effect
CCOC(=O)C1=CCCC[C@H]1S(=O)(=O)Nc1ccc(F)cc1Cl [TAK-242]	–	–	prevented LPS-induced activation of spinal astrocytes and microglia	significantly reduce LPS effect	prevented LPS-induced activation of spinal astrocytes and microglia; also recorded: reduced spinal activation of microglia below baseline levels	effect was also prevented; also recorded: block spinal glial activation following intrauterine administration of LPS	reduced grimace scores non-significantly	LPS-induced activation of spinal astrocytes (GFAP staining, dorsal horn) ([4]; listed as TAK242): blocked the impact of intrauterine LPS at multiple levels of the spinal cord and reduced astrocytic reactivity to below basal levels; also recorded: blocks the impact of intrauterine LPS at multiple levels of the spinal cord and appears to reduce astrocytic reactivity to below basal levels; LPS-induced activation of spinal microglia (Iba1 staining, dorsal horn) ([5]; listed as TAK242): blocked the impact of intrauterine LPS at multiple levels of the spinal cord and reduced microglia reactivity to basal levels; also recorded: appears to reduce microglia reactivity to basal levels
lipopolysaccharide [LPS]	–	–	–	–	–	–	–	activation of spinal astrocytes (GFAP staining) [4, 11]: induced activation of spinal astrocytes and microglia; also recorded: substantial increase in GFAP astrocyte staining throughout multiple levels of the spinal cord; also recorded: induced activation of astrocytes at multiple levels of the spinal levels compared with saline; activation of spinal microglia (Iba1 staining) [5, 11]: induced activation of spinal astrocytes and microglia; also recorded: localised increase in Iba1 microglial staining throughout select levels of the spinal cord; also recorded: induced activation of microglia with inconsistent effect across levels; activation of spinal glial cells ([6]; intra-uterine LPS): activate spinal glial cells, including astrocytes and microglia; Facial Grimace Score ([7]; intrauterine LPS vs saline): caused a significant increase in the presentation of Grimace behaviours in animals
